# Results published in publication PMC8199339, “Propellanes as Rigid Scaffolds for the Stereodefined Attachment of σ-Pharmacophoric Structural Elements to Achieve σ Affinity” (International Journal of Molecular Sciences, 2021).
# Like-named read-outs stand apart in the source and are kept apart here.
# Columns and labels:
# σ1 receptor [1] = molecular target: T1, σ1 receptor (Cavia porcellus, UniProt Q60492); assay: σ1 receptor binding assay, radioligand [3H]-(+)-pentazocine, guinea pig brain membrane preparation; settings: for inhibition at 1 µM / inhibition of the radioligand binding, σ1: test compound concentration of 1 µM
# T1 construct: thawed membrane preparation of guinea pig brain; tissue Harlan-Winkelmann, Borchen, Germany (animal organs); host or cells: guinea pig brain membrane homogenate
# σ2 receptor [2] = molecular target: T2, σ2 receptor (Rattus norvegicus, UniProt Q5U3Y7); assay: σ2 receptor binding assay, radioligand [3H]di-o-tolylguanidine, rat liver membrane preparation; settings: for inhibition at 1 µM / inhibition of the radioligand binding, σ2: test compound concentration of 1 µM
# T2 construct: The thawed rat liver membrane preparation; tissue Harlan-Winkelmann, Borchen, Germany (animal organs); host or cells: rat liver membrane homogenate
# T2 sequence (Q5U3Y7 1-176): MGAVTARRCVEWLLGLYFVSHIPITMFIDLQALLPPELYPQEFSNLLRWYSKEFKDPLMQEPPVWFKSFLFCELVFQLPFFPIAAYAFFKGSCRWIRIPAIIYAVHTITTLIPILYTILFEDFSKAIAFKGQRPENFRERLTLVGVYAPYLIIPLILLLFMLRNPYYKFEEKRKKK
# σ2 receptor [3] = settings: cited from earlier work; for Ki: Figure 2
# σ1 receptor [4] = settings: cited from earlier work; for Ki: Figure 2
# σ1 receptor [5] = molecular target: T1, σ1 receptor; settings: cited from earlier work
# σ2 receptor [6] = molecular target: T2, σ2 receptor; settings: cited from earlier work; for inhibition of the radioligand binding, σ2: test compound concentration of 1 µM, already reported, 1 µM
# [7] = [3H]-(+)-pentazocine, guinea pig brain, mean of three experiments (± SEM), values without SEM mean of two, read-out: Ki (nM) σ1
# [8] = azapropellanes 9, already reported
# T1 sequence (Q60492 whole entry): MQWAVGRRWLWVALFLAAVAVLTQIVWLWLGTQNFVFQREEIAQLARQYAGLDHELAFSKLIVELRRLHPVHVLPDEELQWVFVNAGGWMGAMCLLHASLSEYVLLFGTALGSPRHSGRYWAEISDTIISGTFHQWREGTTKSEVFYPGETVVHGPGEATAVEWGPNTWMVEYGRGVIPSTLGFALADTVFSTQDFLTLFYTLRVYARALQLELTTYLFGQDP
Structure (SMILES),melting point,inhibition at 1 µM (σ1 receptor [1]),inhibition at 1 µM (σ2 receptor [2]),further results
"O=C(NC1CCCCC1)NC1CC23CCCCC2(CCC3)C1 (stereo not drawn) [23b, 1 -Cyclohexyl-3-(syn- and anti-[4.3.3]propellan-8-yl)urea]",187 to 193 °C,0%,0%,–
COc1ccc(C)cc1NC(=O)OC1CC2CCCC(C1)N2Cc1ccccc1 (stereo not shown) [compound 3],–,–,–,Ki (σ2 receptor [3]): 0.0031 µM; preference for the σ2 receptor (σ2 receptor [3]; σ2 over σ1): 30 fold; Ki (σ1 receptor [4]): 0.0925 µM
"C1CCC(CNC2CC34CCCCC3(CCC4)C2)CC1 (stereo not drawn) [compound 18, syn- and anti-N-Cyclohexylmethyl[4.3.3]propellan-8-amine]",108 to 111 °C,–,–,Ki (σ1 receptor [1]; Ki (nM) σ1): 34 ± 11 nM; Ki (σ2 receptor [2]; read-out: Ki (nM) σ2): 101 nM
"c1ccc2c(CCNC3CC45CCCCC4(CCC5)C3)c[nH]c2c1 (stereo not drawn) [compound 15, syn- and anti-N-[2-(Indol-3-yl)ethyl]-[4.3.3]propellan-8-amine]",109 to 111 °C,–,–,Ki (σ1 receptor [1]; Ki (nM) σ1): 598 nM; Ki (σ2 receptor [2]): 974 nM
"COc1ccc(C)cc1NC(=O)NC1CC23CCCCC2(CCC3)C1 (stereo not drawn) [23c, 1-(2-Methoxy-5-methylphenyl)-3-(syn- and anti-[4.3.3]propellan-8-yl)urea]",215 to 220 °C,0%,0%,–
COc1ccc(C)cc1NC(=O)OC1CC23CCCCC2(C1)CN(Cc1ccccc1)CC3 (stereo not drawn) [anti-5],–,–,–,"Ki (σ1 receptor [5]; propellanamines 4a and azapropellanes 5, already reported): 82 ± 54 nM; inhibition of the radioligand binding, σ2 (σ2 receptor [6]): 8%"
"OC1CC23CCCCC2(C1)CC(NCc1ccccc1)C3 (mixture of isomers) [11-anti-13, [(8-anti-11-anti and 8-anti-11-syn)-11-(Benzylamino)[4.3.3]propellan-8-ol]",121 to 123 °C,29%,–,Ki (σ2 receptor [2]; read-out: Ki (nM) σ2): 1070 nM
"O=C(Nc1ccc(F)c(F)c1)NC1CC23CCCCC2(CCC3)C1 (stereo not drawn) [23d, 1-(3,4-Difluorophenyl)-3-(syn- and anti-[4.3.3]propellan-8-yl)urea]",168 to 175 °C,0%,0%,–
"CN(C)c1ccc(CNC2CC34CCCCC3(CCC4)C2)cc1 (stereo not drawn) [compound 17, syn- and anti-N-(4-(Dimethylaminobenzyl)-[4.3.3]propellan-8-amine]",89 to 91 °C,–,1%,Ki (σ1 receptor [1]; [7]): 1200 nM
"COc1ccc(C)cc1NC(=O)N(Cc1ccccc1)C1CC23CCCCC2(CC(=O)C3)C1 (stereo not drawn) [syn-21, 1 -Benzyl-3-(2-methoxy-5-methylphenyl)-1-(syn-11-oxo-[4.3.3]propellan-8-yl)urea]",168 to 170 °C,–,14%,"inhibition of the radioligand binding, σ1 (σ1 receptor [1]; 1 µM): 13%"
COc1ccc(CN2CC3CCCC2CN3Cc2ccccc2)cc1 (stereo not shown) [compound 2],–,–,–,Ki (σ2 receptor [3]): 0.039 µM; Ki (σ1 receptor [4]): 0.00091 µM; selectivity for σ1 against/over the σ2 subtype (σ1 receptor [4]): more than 40 fold
"COc1ccc(C)cc1NC(=O)N(Cc1ccccc1)C1CC23CCCCC2(CC(=O)C3)C1 (stereo not drawn) [anti-21, 1 -Benzyl-3-(2-methoxy-5-methylphenyl)-1-(anti-11-oxo-[4.3.3]propellan-8-yl)urea]",133 to 136 °C,–,–,"inhibition of the radioligand binding, σ1 (σ1 receptor [1]; 1 µM): 5%; inhibition of the radioligand binding, σ2 (σ2 receptor [2]; 1 µM): 12%"
c1ccc(CN2CC34CCCCC3(CCC4)C2)cc1 (stereo not shown) [9a],–,–,–,selectivity for the σ1 receptor over the σ2 receptor (σ1 receptor [1]; σ1 over σ2): at least 10 fold; Ki (σ1 receptor [5]; [8]): 17 ± 12 nM; Ki (σ2 receptor [6]; [8]): 190 nM
"FCC[C@@H]1OC2(CCN(Cc3ccccc3)CC2)c2ccccc21 [compound 1, (S)-fluspidine]",–,–,–,Ki (σ2 receptor [3]): 0.897 µM; Ki (σ1 receptor [4]): 0.0023 µM; selectivity for σ1 against/over the σ2 subtype (σ1 receptor [4]): 300 fold
"COc1ccc(C)cc1NC(=O)OC1CC23CCCCC2(CC(NCCCN)C3)C1 (stereo not drawn) [8-anti-4r, [(8-anti-11-anti and 8-anti-11-syn)-11-[(3-Aminopropyl)amino][4.3.3]propellan-8-yl] N-(2-methoxy-5-methylphenyl)carbamate]",74 to 76 °C,16%,0%,–
COc1ccc(C)cc1NC(=O)OC1CC23CCCCC2(C1)CN(Cc1ccccc1)CC3 (stereo not drawn) [syn-5],–,–,–,"inhibition of the radioligand binding, σ1 (σ1 receptor [5]; test compound concentration of 1 µM, already reported): 12%; inhibition of the radioligand binding, σ2 (σ2 receptor [6]): 0%"
"O=C(Nc1ccccc1)NC1CC23CCCCC2(CCC3)C1 (stereo not drawn) [23a, 1 -Phenyl-3-(syn- and anti-[4.3.3]propellan-8-yl)urea]",134 to 138 °C,0%,15%,–
c1ccc(CNC2CC34CCCCC3(C2)CC2(C4)OCCO2)cc1 (stereo not drawn) [syn-14],–,–,–,"Ki (σ1 receptor [1]; [7]): 750 nM; inhibition of the radioligand binding, σ2 (σ2 receptor [2]; listed as syn- 14, 1 µM): 7%"
"COc1ccc(C)cc1NC(=O)N(Cc1ccccc1)C1CC23CCCCC2(CC(O)C3)C1 (stereo not drawn) [anti,anti-22, 1 -Benzyl-1-{(8-anti,11-anti)-11-hydroxy[4.3.3]propellan-8-yl}-3-(2-methoxy-5-methylphenyl)urea]",–,–,–,"inhibition of the radioligand binding, σ1 (σ1 receptor [1]): 0%; inhibition of the radioligand binding, σ2 (σ2 receptor [2]; 1 µM): 0%"
"O=C(Nc1ccc(F)c(F)c1)NC1CC23CCCCC2(CC(O)C3)C1 (stereo not drawn) [anti,anti-26, 1-(3,4-Difluorophenyl)-3-(8-anti-11-anti-11-hydroxy[4.3.3]propellan-8-yl)urea]",–,0%,0%,–
"O=C(Nc1ccc(F)c(F)c1)NC1CC23CCCCC2(CC(O)C3)C1 (mixture of isomers) [8-syn-26, 1-(3,4-Difluorophenyl)-3-(8-syn-11-syn- and 8-syn-11-anti-11-hydroxy[4.3.3]-propellan-8-yl)urea]",171 to 178 °C,10%,0%,–
